Source: PMC4598023 (PLoS ONE, 2015)
Like-named read-outs stand apart in the source and are kept apart here. One block for each molecule: values may come before it. Bridges are numbered along the chain shown (N, C = ends). Where no end group is shown, it is not given here.

B1: murine amylin (peptide, UniProt P12968 38-74, looked up)
peptide: KCNTATCATQRLANFLVRSSNNLGPVLPPTNVGSNTY-NH2
modifications: disulfide 2-7; also: FITC (<1 mol/mol, position not given here) on labelled copy only
notes: murine amylin (islet amyloid polypeptide), the 37-residue hormone; numbers count on: the mature protein; The unlabelled ligand and the FITC-labelled copy are written as one molecule; also called free murine amylin; non-conjugated amylin; source: synthetic peptide, bought: Genemed Synthesis Inc

Columns and labels:
[1] = cited from earlier work
Source text: One additional limitation for the use of the currently available amylinomimetic compound is the lack of ability for mimicking the basal levels of amylin in the fasting state. […] (Fig 6A) and thus a sustained release of amylin of an increasing in its t1/2 would serve as potential strategies for the restoration of basal hormone levels. […] Additionall ...

[2] = Pharmacokinetics after subcutaneous administration in mice (serum amylin by ELISA); type: in vivo; settings: Swiss male mice, s.c., 400 μg peptide/kg; for level at time molar at 5 s / level at time molar at 0.5 min / level at time molar at 1 min / level at time molar at 2 min / level at time molar at 4 min / level at time molar at 0.8 h: male, Swiss, 400 ug peptide/kg, ELISA, read-out: amylin concentration (serum); for level at time molar at 5 s: Time 0.0833 (head: min); for level at time molar at 0.5 min: Time 0.5 (head: min); for level at time molar at 1 min: Time 1 (head: min); for level at time molar at 2 min: Time 2 (head: min); for level at time molar at 4 min: Time 4 (head: min); for level at time molar at 0.8 h: Time 48 (head: min)
Protocol: Swiss male mice (8 weeks old; n = 4 per group) were administrated of free or monoPEGylated human amylin (both at 400 μg peptide / kg body weight) by subcutaneous route. At the indicated time interval, blood was collected with glass capillary tubes from retro-orbital access and the serum was separated. The concentration of amylin in the plasma was evaluated by ELISA (Merck Millipore, cat # EZHA-52K) by following the manufacturer protocol. The sensitivity of the ELISA assay kit for the monoPEGylated human amylin product was similar to the non-conjugated human amylin as inferred from control analytical curves. In case needed, the mice plasma samples were diluted accordingly in order to achieve the desired concentration range of the ELISA kit. Glucagon was evaluated from the same serum samples, by using an ELISA kit (Merck Millipore, Cat # EZGLU-30K) according to instructions of the manufacturer.
Continuous lines are best fitting of single-exponential decay function to data. b) Modulation of glucagon. […] The raw data can be found in S2 File.

Trypsin = assay: trypsin in 25 mM ammonium bicarbonate, after reduction with dithiothreitol and blockage with iodoacetamide; settings: 37°C, up to 18 h
[3] = target: T1, human receptor-activity modifying protein 3 Extracellular Topological Domain (human, UniProt O60896 28-117, fluorescein (FITC, below 1 mol per mol protein, position not stated)); assay: fluorescence polarisation; fluorescence anisotropy of the FITC-labelled protein (50 nM murine amylin, CTR1 or RAMP3) against total concentration of unlabelled ligand; PBS pH 7.4, 25°C; ex 480 nm, em 520 nm, cut-off filter 515 nm; settings: both partners purified
T1 construct: human receptor-activity modifying protein 3, extracellular topological domain, residues 28-117 of O60896; pET28b construct with a thrombin cleavage site after the N-terminal histidine tag; no cleavage is told; also called RAMP3-ETD; RAMP3
T1 sequence (looked up): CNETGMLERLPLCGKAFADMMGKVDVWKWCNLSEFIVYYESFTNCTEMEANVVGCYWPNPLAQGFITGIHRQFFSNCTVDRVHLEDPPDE

murine amylin = target: B1; assay: as above; settings: both partners purified
[4] = fit of serum concentration vs time
[5] = mouse, in vivo, sc, replicate column 1
[6] = mouse, in vivo, sc, replicate column 2

Molecule: CC[C@H](C)[C@H](NC(=O)[C@H](C)NC(=O)CNC(=O)[C@H](Cc1ccccc1)NC(=O)[C@H](CC(N)=O)NC(=O)[C@H](CC(N)=O)NC(=O)[C@H](CO)NC(=O)[C@H](CO)NC(=O)[C@H](Cc1c[nH]cn1)NC(=O)[C@@H](NC(=O)[C@H](CC(C)C)NC(=O)[C@H](Cc1ccccc1)NC(=O)[C@H](CC(N)=O)NC(=O)[C@H](C)NC(=O)[C@H](CC(C)C)NC(=O)[C@H](CCCNC(=N)N)NC(=O)[C@H](CCC(N)=O)NC(=O)[C@@H](NC(=O)[C@H](C)NC(=O)[C@@H]1CSSC[C@H](NC(=O)[C@@H](N)CCCCN)C(=O)N[C@@H](CC(N)=O)C(=O)N[C@@H]([C@@H](C)O)C(=O)N[C@@H](C)C(=O)N[C@@H]([C@@H](C)O)C(=O)N1)[C@@H](C)O)C(C)C)C(=O)N[C@@H](CC(C)C)C(=O)N[C@@H](CO)C(=O)N[C@@H](CO)C(=O)N[C@H](C(=O)N[C@@H](CC(N)=O)C(=O)N[C@H](C(=O)NCC(=O)N[C@@H](CO)C(=O)N[C@@H](CC(N)=O)C(=O)N[C@H](C(=O)N[C@@H](Cc1ccc(O)cc1)C(N)=O)[C@@H](C)O)C(C)C)[C@@H](C)O [human amylin]
half-life (t1/2) [1]: 15 to 20 min
Half Life (One phase decay, best-fit value) ([2]; (unit not given)): 0.3893
Tau (One phase decay, best-fit value) ([2]; (unit not given)): 0.5616
K (One phase decay, best-fit value) [2, 4]: 1.781
Plateau (One phase decay, best-fit value) [2, 4]: 184.9
Span (One phase decay, best-fit value) [2, 4]: 6701
Y0 (One phase decay, best-fit value) [2, 4]: 6886
level at time molar at 5 s [2, 5]: 6630 nM
level at time molar at 5 s [2, 6]: 6710 nM
level at time molar at 0.5 min [2, 5]: 4690 nM
level at time molar at 0.5 min [2, 6]: 659 nM
level at time molar at 1 min [2, 5]: 2720 nM
level at time molar at 1 min [2, 6]: 423 nM
level at time molar at 2 min [2, 5]: 593 nM
level at time molar at 2 min [2, 6]: 324 nM
level at time molar at 4 min [2, 5]: 198 nM
level at time molar at 4 min [2, 6]: 207 nM
level at time molar at 0.8 h [2, 5]: 22.7 nM
level at time molar at 0.8 h [2, 6]: 18.2 nM
half-life ([2]; mouse, in vivo, sc, serum amylin by ELISA, single-exponential decay fit, n = 4 per group): 23 min

Molecule: B1
binding result [3]: binds

The remaining lines, values ahead:

cleaved bond (Trypsin): Arg11-L12
Molecule: KCNTATCATQRLANFLVHSSNNFGAILSSTNVGSNTY-CONH2

binding result (murine amylin): binds
binding result [3]: binds
B2: monoPEGylated human amylin (peptide, UniProt P10997 34-70, looked up)
peptide: KCNTATCATQRLANFLVHSSNNFGAILSSTNVGSNTY-NH2
modifications: disulfide 2-7; also: one methoxy-PEG 5 kDa (mPEG succinimidyl carbonate) at an amino group of Lys1, N-terminal region
notes: human amylin (islet amyloid polypeptide, IAPP), the 37-residue hormone, amino acids 1 to 37; numbers count on: the mature protein; The PEG site was placed by trypsin digestion and MALDI-ToF-MS: fragment 12-37 is unmodified; also called PEGylated amylin; hAmylin-PEG
